Measurements from US20200009088A1, “COMPOSITIONS AND METHODS FOR TREATING ANDROGEN-INDEPENDENT CANCER” (The Regents of the University of California, priority 2017, published 2020).

Tests used:
PSA = PSA protein expression by ELISA in C4-2 cells overexpressing AR-V7; format: cell-based; details: C4-2-V7 cells, FIG. 3
Experimental: PSA protein expression was determined by ELISA assay. * denotes p<0.05.

AR = assay: Western blot of AR expression in CWR22Rv1 cell lysates; format: cell-based; details: CWR22Rv1 cells, FIG. 2A
Experimental: (§1) “AR-Variants” represents a combination of all forms of AR.
(§2) The effects of the synthetic small molecule modulators on AR and AR variant expression were determined. CWR22Ry1 prostate cancer cells were treated with different compounds. Protein lysates were analyzed for AR and AR variant expression.

C4-2B AbiR cells = assay: Cell growth assay (cell numbers), C4-2B AbiR; format: cell-based; details: 48 hours, FIG. 7C; for cell proliferation, combination with enzalutamide (MDV): 0.5 μM + enzalutamide
CWR22Rv1 cells [1] = assay: Cell growth assay (cell numbers), CWR22Rv1; format: cell-based
Experimental: DMSO treatment was used as a negative control. Total cell numbers were counted at 0, 3, and 5 days.
DMSO treatment was used as a negative control. Total cell numbers were counted at 0, 3, and 5 days. […]
The cell growth was determined at 3,5 days. […] The cell growth was determined at 3,5 days.

C4-2BMDVR cells = assay: ELISA cell death (apoptosis) assay; format: cell-based; details: FIG. 8; for cell apoptosis: compound alone, analogs compared with niclosamide
Experimental: To further examine the anti-cancer effects of these compounds, an ELISA cell death assay was performed.

C4-2B MDVR cells = assay: Cell growth assay (cell numbers), C4-2B MDVR; format: cell-based; details: for cell proliferation, combination with enzalutamide (MDV) / cell growth: C4-2B MDVR, 48 hours; for cell proliferation, combination with enzalutamide (MDV): 0.5 μM + enzalutamide
C4-2-V7 cells = assay: Cell growth assay (cell numbers), C4-2-V7; format: cell-based; details: 48 hours, FIG. 7D; for cell proliferation, combination with enzalutamide (MDV): C4-2-V7, 0.5 μM + enzalutamide
CWR22Rv1 cells [2] = assay: Cell growth assay (cell numbers), CWR22Rv1; format: cell-based; details: for cell proliferation, combination with enzalutamide (MDV): CWR22Rv1, 0.5 μM + enzalutamide
AR-V7 [3] = target: T1, AR-V7 (Homo sapiens, UniProt P10275); assay: PSA-luc reporter in LNCaP cells co-transfected with AR-V7; details: LNCaP cells co-transfected with AR-V7, FIG. 4
T1 sequence (P10275 1-644 isoform P10275-3): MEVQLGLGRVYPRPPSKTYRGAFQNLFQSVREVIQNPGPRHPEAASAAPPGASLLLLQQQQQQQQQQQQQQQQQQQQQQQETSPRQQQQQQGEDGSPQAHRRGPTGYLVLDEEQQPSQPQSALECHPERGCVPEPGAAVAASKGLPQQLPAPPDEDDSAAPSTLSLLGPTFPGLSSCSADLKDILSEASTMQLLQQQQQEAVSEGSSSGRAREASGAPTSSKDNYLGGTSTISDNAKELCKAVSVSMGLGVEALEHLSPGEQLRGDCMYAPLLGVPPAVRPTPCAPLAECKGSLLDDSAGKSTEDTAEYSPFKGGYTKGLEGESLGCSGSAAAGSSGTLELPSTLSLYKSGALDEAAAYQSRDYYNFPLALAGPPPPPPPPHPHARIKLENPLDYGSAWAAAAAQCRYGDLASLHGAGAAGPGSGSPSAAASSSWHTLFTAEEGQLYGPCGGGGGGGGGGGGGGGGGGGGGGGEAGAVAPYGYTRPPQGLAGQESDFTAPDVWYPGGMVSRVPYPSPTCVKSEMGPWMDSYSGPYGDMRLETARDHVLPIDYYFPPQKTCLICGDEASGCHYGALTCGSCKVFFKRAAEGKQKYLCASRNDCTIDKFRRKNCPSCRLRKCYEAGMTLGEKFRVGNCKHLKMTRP
Experimental: The luciferase activity was then determined. * denotes p<0.05.
In addition, the effects on AR transcriptional activity were determined using PSA-luc as a reporter. LNCaP cells were cotransfected with PSA-luc together with or without AR-V7, and treated with the compounds.

AR-V7 [4] = target: T1, AR-V7; assay: Western blot of AR-V7 expression in CWR22Rv1 cell lysates; format: cell-based; set-up: endogenous in cells; host or cells: CWR22Rv1 prostate cancer cells (also grown as xenograft tumours); details: CWR22Rv1 cells, FIG. 2A
Experimental: as §1, §2

in vivo = details: for Cmax: rat plasma, p.o. 200 mg/kg
Experimental: Blood samples were obtained at the time points indicated in FIG. 18 (0 minutes, 15 minutes, 30 minutes, 1 hour, 1.5 hours, 2 hours, 4 hours, 6 hours, 8 hours, and 24 hours) and the plasma was isolated for LC-MS analysis.

AR variants [5] = assay: AR variant protein degradation (cycloheximide, MG132, ubiquitin IP) in C4-2B MDVR cells; format: cell-based; details: FIG. 16
Experimental: as §1
(§3) To determine if the small molecule modulators affect AR-V7 protein expression via protein degradation, CWR22Rv1 and C4-2B MDVR cells were treated with cycloheximide (CHX) and the half-life of AR-V7 protein was measured.
After 0, 2, 4, and 8 hours, whole cell lysate was collected and subjected to Western blot. Half-life of AR-V7 was then calculated.
Whole cell lysate was subsequently collected and subjected to Western blot.
Whole cell lysate was immunoprecipitated with an AR antibody and blot with ubiquitin and AR antibodies.

AR-V3 = assay: PSA-luc assay in C4-2B cells, AR-V3; format: cell-based; details: FBS, 1 μM overnight, FIG. 14C
Source text: C4-2B cells were cotransfected with pcDNA, with or without AR-V1, AR-V3, AR-V7, AR-V9 or AR-V12, and with PSA-E/P-luciferase plasmids in FBS condition.

AR variants [6] = assay: AR variant protein degradation (cycloheximide, MG132, ubiquitin IP) in CWR22Rv1 cells; format: cell-based; details: FIG. 15
Experimental: as §1, §3
After 0, 2, 4, and 8 hours, whole cell lysate was collected and subjected to Western blot. The half-life of AR-V7 was then calculated.
Subsequently, the whole cell lysate was collected and subjected to Western blot.
For the data shown in FIG. 15C, CWR22Rv1 cells were treated with Nic, Compound 7, or Compound 31. Subsequently, whole cell lysate was immunoprecipitated with an AR antibody and blotted with ubiquitin and AR antibodies.

[7] = increasing doses of niclosamide/analogs, FIG. 6
[8] = CWR22Rv1, 48 hours, increasing doses of niclosamide/analogs, FIG. 6
[9] = male, Sprague-Dawley, rat, in vivo, po, 200 mg/kg
[10] = male, Sprague-Dawley, rat, plasma, po, 200 mg/kg

## CCC(=O)Oc1ccc(Cl)cc1C(=O)Nc1ccc([N+](=O)[O-])cc1Cl [Compound 30]
PSA; compound alone, ELISA
  PSA expression: inhibited
PSA; in presence of enzalutamide (MDV)
  enzalutamide-mediated PSA inhibition: further enhanced
AR
  AR expression: inhibited
C4-2B AbiR cells
  cell proliferation, combination with enzalutamide (MDV): further inhibited
CWR22Rv1 cells [1]; CWR22Rv1, analog 0.25 μM + abiraterone 5 μM
  synergy with abiraterone in inhibiting cell growth: able to synergize
CWR22Rv1 cells [1]; CWR22Rv1, analog 0.25 μM + abiraterone 5 μM, 0, 3, 5 days, FIGS. 9, 11
  cell growth, combination with abiraterone: significantly inhibited
CWR22Rv1 cells [1]; CWR22Rv1, analog 0.25 μM + bicalutamide 20 μM, 0, 3, 5 days, FIG. 12
  cell growth, combination with bicalutamide: able to significantly inhibit
CWR22Rv1 cells [1]; CWR22Rv1, analog 0.25 μM + bicalutamide 20 μM, FIG. 12
  synergy with bicalutamide in inhibiting cell growth: able to synergize
CWR22Rv1 cells [1]; CWR22Rv1, analog 0.25 μM + enzalutamide 20 μM
  synergy with enzalutamide in inhibiting cell growth: able to synergize
CWR22Rv1 cells [1]; CWR22Rv1, analog 0.25 μM + enzalutamide 20 μM, 0, 3, 5 days, FIGS. 9, 11
  cell growth, combination with enzalutamide: significantly inhibited
CWR22Rv1 cells [1]; CWR22Rv1, analog 0.25 μM, 0, 3, 5 days, FIGS. 9, 11, 12
  cell growth, niclosamide analog alone: None of Compounds 1, 7, 30, 31, or 34 alone were able to inhibit
C4-2BMDVR cells
  cell apoptosis: further enhanced
C4-2BMDVR cells; with enzalutamide
  apoptotic cell death, combination with enzalutamide (MDV): further increased
C4-2B MDVR cells; FIG. 7B
  cell proliferation, combination with enzalutamide (MDV): further inhibited
C4-2B MDVR cells; C4-2BMDVR, analog 0.25 μM + abiraterone 5 μM, FIG. 10
  synergy with abiraterone in inhibiting cell growth: able to synergize
C4-2B MDVR cells; C4-2BMDVR, analog 0.25 μM + enzalutamide 20 μM, FIG. 10
  synergy with enzalutamide in inhibiting cell growth: able to synergize
C4-2-V7 cells
  cell proliferation, combination with enzalutamide (MDV): further inhibited
CWR22Rv1 cells [2]; 48 hours, FIG. 7A
  cell proliferation, combination with enzalutamide (MDV): further inhibited
AR-V7 [3]
  AR-V7 mediated PSA-luc activity: inhibited
AR-V7 [4]
  AR-V7 (AR variant) expression: inhibited

## CNC(=O)c1ccc(N2C(=S)N(c3ccc(C#N)c(C(F)(F)F)c3)C(=O)C2(C)C)cc1F [enzalutamide, reference compound]
CWR22Rv1 cells [1]; CWR22Rv1, enzalutamide 20 μM or abiraterone 5 μM, 0, 3, 5 days, FIG. 9
  cell growth, antiandrogen alone: resistant
C4-2B MDVR cells; [7]
  cell growth: did not inhibit
CWR22Rv1 cells [2]; [8]
  cell growth: did not inhibit

## O=C(Nc1ccc([N+](=O)[O-])cc1Cl)c1cc(Cl)ccc1O [niclosamide, (5-chloro-N-2-chloro-4-nitro-phenyl)-2-hydroxybenzamide, reference compound]
In vivo; [9]
  AUC_% Extrap_obs: 3.67 +/− 3.73%
  HL_Lambda_z: 328.09 ± 173.05 min
In vivo; [10]
  AUC(0-inf): 28.4 µM·h
  AUC(0-t): 4.14 µM·h
  Tmax: 25 min
In vivo; male, Sprague-Dawley, rat, plasma, po, 200 mg/kg, Cmax
  Cmax: 1560 nM
In vivo
  Cmax: 1560 nM
C4-2B AbiR cells
  cell proliferation, combination with enzalutamide (MDV): further inhibited
C4-2B AbiR cells; 0.5 μM
  cell growth: significantly inhibited
AR variants [5]
  AR variant degradation via the proteasome-ubiquitination system: degraded
AR-V3
  AR-V3-mediated PSA-luc activity: inhibited
C4-2BMDVR cells
  cell apoptosis: significantly induced
C4-2B MDVR cells; FIG. 7B
  cell proliferation, combination with enzalutamide (MDV): further inhibited
C4-2B MDVR cells; 0.5 μM, FIG. 7B
  cell growth: significantly inhibited
C4-2B MDVR cells; [7]
  cell growth: able to inhibit cell growth in a dose-dependent manner
C4-2-V7 cells
  cell proliferation, combination with enzalutamide (MDV): further inhibited
C4-2-V7 cells; C4-2-V7, 0.5 μM
  cell growth: significantly inhibited
AR variants [6]
  AR variant degradation via the proteasome-ubiquitination system: degraded
CWR22Rv1 cells [2]; 48 hours, FIG. 7A
  cell proliferation, combination with enzalutamide (MDV): further inhibited
CWR22Rv1 cells [2]; CWR22Rv1, 0.5 μM, 48 hours, FIG. 7A
  cell growth: significantly inhibited
CWR22Rv1 cells [2]; [8]
  cell growth: able to inhibit cell growth in a dose-dependent manner
